Data as given in US20220235065A1 (Epizyme, Inc., priority 2016, published 2022).
Where a name gives a salt, the structure may show the parent alone.

Key:
[1] = system: H3K9me2 in MDA-MB-231 cells; experiment: MDA-MB-231 H3K9me2 in-cell western assay; type: cell-based; conditions: Homo sapiens, read-out: EHMT2 ICW (IC50 μM)
Summary of the method: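 MDA-MB-231 cells (3,000/well) exposed to compound for two consecutive 48 h periods at 37 °C, then fixed and stained for H3K9me2, with DRAQ5 as DNA stain and infrared read at 700/800 nm. Percent inhibition was set between DMSO and UNC0638 control wells. IC50 came from triplicate dose–response fits with a four-parameter model, top 100%, bottom 0%.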

EHMT1 = biological target: T1, EHMT1 (Homo sapiens, UniProt Q9H9B1); experiment: EHMT1 PEP (EHMT1 peptide enzyme assay); type: biochemical; conditions: peptide substrate enzyme assay
T1 sequence (Q9H9B1 1-1298): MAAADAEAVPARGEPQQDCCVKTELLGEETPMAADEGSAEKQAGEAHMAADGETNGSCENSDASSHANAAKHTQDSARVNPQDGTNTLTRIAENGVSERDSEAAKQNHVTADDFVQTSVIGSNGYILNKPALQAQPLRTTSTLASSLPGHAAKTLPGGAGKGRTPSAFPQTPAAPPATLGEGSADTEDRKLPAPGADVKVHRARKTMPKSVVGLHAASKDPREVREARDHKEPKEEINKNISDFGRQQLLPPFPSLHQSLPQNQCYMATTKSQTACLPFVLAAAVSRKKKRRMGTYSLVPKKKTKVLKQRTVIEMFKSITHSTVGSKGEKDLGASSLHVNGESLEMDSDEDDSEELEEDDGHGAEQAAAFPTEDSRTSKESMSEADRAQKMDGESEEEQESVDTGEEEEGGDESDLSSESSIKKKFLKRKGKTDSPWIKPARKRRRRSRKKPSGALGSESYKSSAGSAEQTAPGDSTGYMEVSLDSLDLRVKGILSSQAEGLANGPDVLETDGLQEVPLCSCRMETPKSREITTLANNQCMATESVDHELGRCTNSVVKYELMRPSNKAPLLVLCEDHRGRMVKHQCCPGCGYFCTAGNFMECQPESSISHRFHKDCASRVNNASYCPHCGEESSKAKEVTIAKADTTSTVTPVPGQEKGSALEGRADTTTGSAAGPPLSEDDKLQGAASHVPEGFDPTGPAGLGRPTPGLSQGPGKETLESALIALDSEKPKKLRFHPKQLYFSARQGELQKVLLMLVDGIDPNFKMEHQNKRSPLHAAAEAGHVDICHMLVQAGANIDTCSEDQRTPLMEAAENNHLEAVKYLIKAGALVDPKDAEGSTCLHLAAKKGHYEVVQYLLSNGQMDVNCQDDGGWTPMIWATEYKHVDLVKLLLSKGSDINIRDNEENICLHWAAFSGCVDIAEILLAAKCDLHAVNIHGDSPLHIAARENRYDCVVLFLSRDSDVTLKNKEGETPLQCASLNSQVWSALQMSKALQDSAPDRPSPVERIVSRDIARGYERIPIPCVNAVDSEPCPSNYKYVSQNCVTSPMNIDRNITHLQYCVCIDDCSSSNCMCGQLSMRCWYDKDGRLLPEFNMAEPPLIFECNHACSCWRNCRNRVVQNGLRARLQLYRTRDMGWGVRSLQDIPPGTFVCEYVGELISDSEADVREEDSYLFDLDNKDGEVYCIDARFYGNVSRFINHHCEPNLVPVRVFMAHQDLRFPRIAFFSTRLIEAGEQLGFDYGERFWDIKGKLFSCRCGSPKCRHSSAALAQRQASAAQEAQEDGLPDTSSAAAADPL

Compound	IC50 [1]	IC50 (EHMT1)
CNc1cc(C)nc(Nc2ccc(OC)c(-n3cc4c(n3)CCN(C)C4)c2)n1 [Compound 2]	0.1 to 1 µM	< 0.1 µM
CNc1cc(C)nc(Nc2ccc(OC)c(-n3cc4c(n3)CN(C)CC4)c2)n1 [Compound 3]	> 10 µM	0.1 to 1 µM
CNc1cc(C)nc(Nc2ccc(OC)c(-n3ccc(CN4CCCC4)n3)c2)n1 [Compound 4, trifluoroacetic acid]	1 to 10 µM	1 to 10 µM
CNc1cc(C)nc(Nc2ccc(OC)c(-n3cc(CN4CCCC4)cn3)c2)n1 [Compound 5, 2-N-[4-methoxy-3-[4-(pyrrolidin-1-ylmethyl)-1H-pyrazol-1-yl]phenyl]-4-N,6-dimethylpyrimidine-2,4-diamine]	1 to 10 µM	0.1 to 1 µM
CNc1cc(C)nc(Nc2ccc(OC)c(-n3cc4ccncc4n3)c2)n1 [Compound 41]	> 10 µM	1 to 10 µM
CNc1cc(C)nc(Nc2ccc(OC)c(-c3ccc4cc[nH]c4n3)c2)n1 [Compound 42]	> 10 µM	> 10 µM
CNc1cc(C)nc(Nc2ccc(OC)c(-n3cc4c(n3)CCOC4)c2)n1 [Compound 43]	> 10 µM	1 to 10 µM
CNc1cc(C)nc(Nc2ccc(OC)c(-c3nc4cnccc4[nH]3)c2)n1 [Compound 47]	> 10 µM	1 to 10 µM
CNc1cc(C)nc(Nc2ccc(OC)c(-c3cc4cnccc4[nH]3)c2)n1 [Compound 48]	1 to 10 µM	< 0.1 µM
CCn1cc(NC(=O)c2cc(Nc3nc(C)cc(NC)n3)ccc2OC)cn1 [Compound 49]	> 10 µM	> 10 µM
CNc1cc(C)nc(Nc2cnc(OC)c(-n3cc4c(n3)CCNC4)c2)n1 [Compound 50]	> 10 µM	0.1 to 1 µM
CNc1cc(C)nc(Nc2ccc(OC)c(-n3cc4c(n3)CCCN4)c2)n1 [Compound 56, N2-(4-methoxy-3-(4,5,6,7-tetrahydro-2H-pyrazolo[4,3-b]pyridin-2-yl)phenyl)-N4,6-dimethylpyrimidine-2,4-diamine hydrochloride]	> 10 µM	1 to 10 µM
CNc1cc(C)nc(Nc2cnc(OC)c(-n3cc4c(n3)CCN(C)C4)c2)n1 [Compound 57]	1 to 10 µM	0.1 to 1 µM
CNc1cc(C)nc(Nc2cnc(OC)c(-c3nc4cnccn4n3)c2)n1 [Compound 60]	1 to 10 µM	1 to 10 µM
CNc1cc(C)nc(Nc2ccc(OC)c(-n3cnc(CN(C)C)n3)c2)n1 [Compound 61]	> 10 µM	1 to 10 µM
CNc1cc(C)nc(Nc2cnc(OC)c(-n3cnc(CN(C)C)n3)c2)n1 [Compound 62]	> 10 µM	1 to 10 µM
CNc1cc(C)nc(Nc2cc(-n3cc4c(n3)CCN(C)C4)c(OC)cn2)n1 [Compound 65]	> 10 µM	1 to 10 µM
CNc1cc(C)nc(Nc2ccc(OC)c(-n3cc(CN(C)C)nn3)c2)n1 [Compound 66]	0.1 to 1 µM	< 0.1 µM
CNc1cc(C)nc(Nc2ccc(OC)c(-n3cnc(CN4CCC4)n3)c2)n1 [Compound 67]	> 10 µM	1 to 10 µM
CNc1cc(C)nc(Nc2ccc(OC)c(-n3cnc(CN4CC(F)C4)n3)c2)n1 [Compound 68]	> 10 µM	> 10 µM
CNc1cc(C)nc(Nc2ccc(OC)c(-n3cc4c(n3)CCN(C3COC3)C4)c2)n1 [Compound 69]	> 10 µM	> 10 µM
CCN1CCc2nn(-c3cc(Nc4nc(C)cc(NC)n4)ccc3OC)cc2C1 [Compound 70]	1 to 10 µM	0.1 to 1 µM
CNc1cc(C)nc(Nc2ccc(OC)c(-c3nnc(CN(C)C)[nH]3)c2)n1 [Compound 73]	> 10 µM	1 to 10 µM
CNc1cc(C)nc(Nc2cnc(OC)c(-n3cc(CN(C)C)cn3)c2)n1 [Compound 74]	0.1 to 1 µM	< 0.1 µM
CNc1cc(C)nc(Nc2ccc(OC)c(-n3ncc4c3CN(C(C)=O)CC4)c2)n1 [Compound 75]	> 10 µM	> 10 µM

Compound	IC50 [1]	IC50 (EHMT1)
CNc1cc(C)nc(Nc2ccc(OC)c(-n3nccc3CNC(C)=O)c2)n1 [Compound 76]	> 10 µM	> 10 µM
CNc1cc(C)nc(Nc2ccc(OC)c(-c3nnc4n3CCN(C(=O)OC(C)(C)C)C4)c2)n1 [Compound 77]	> 10 µM	> 10 µM
CNc1cc(C)nc(Nc2ccc(OC)c(-c3nc4c([nH]3)CNCC4)c2)n1 [Compound 78]	> 10 µM	1 to 10 µM
CNc1cc(C)nc(Nc2ccc(OC)c(-c3nc4c([nH]3)CN(C)CC4)c2)n1 [Compound 79]	> 10 µM	1 to 10 µM
CNc1cc(C)nc(Nc2ccc(OC)c(-n3cc(C)c4c3CCN(C)C4)c2)n1 [Compound 81]	1 to 10 µM	1 to 10 µM
CNc1cc(C)nc(Nc2ccc(OC)c(-n3cc4c(n3)CCN(C3CC3)C4)c2)n1 [Compound 82]	1 to 10 µM	0.1 to 1 µM
COc1ncc(Nc2nc(C)cc(NCC3COC3)n2)cc1-n1cc(CN(C)C)nn1 [Compound 86]	> 10 µM	> 10 µM
CNC(=O)CCNc1cc(C)nc(Nc2ccc(OC)c(-n3cc4c(n3)CCN(C)C4)c2)n1 [Compound 87]	0.1 to 1 µM	< 0.1 µM
CNC(=O)N1CC(CNc2cc(C)nc(Nc3ccc(OC)c(-n4cc5c(n4)CCN(C)C5)c3)n2)C1 [Compound 88]	> 10 µM	0.1 to 1 µM
CNc1cc(C)nc(Nc2ccc(OC)c(-c3cc4cnccn4n3)c2)n1 [Compound 93]	> 10 µM	1 to 10 µM
CNc1cc(C)nc(Nc2ccc(OC)c(-n3cc(C)c(CNC(C)=O)n3)c2)n1 [Compound 94]	> 10 µM	1 to 10 µM
CNc1cc(C)nc(Nc2ccc(OC)c(-n3ccc(CNC(C)=O)n3)c2)n1 [Compound 95]	> 10 µM	> 10 µM
CNc1cc(C)nc(Nc2ccc(OC)c(-n3ccc(CN(C)C(C)=O)n3)c2)n1 [Compound 96]	> 10 µM	> 10 µM
CNc1cc(C)nc(Nc2ccc(OC)c(-n3cc4c(C)nccc4n3)c2)n1 [Compound 99]	1 to 10 µM	1 to 10 µM
CNc1cc(C)nc(Nc2ccc(OC)c(-n3cc4c(OC)nccc4n3)c2)n1 [Compound 100]	1 to 10 µM	> 10 µM
CNc1cc(C)nc(Nc2ccc(OC)c(-n3cc(C)c(CN(C)C)n3)c2)n1 [Compound 102]	1 to 10 µM	0.1 to 1 µM
CNC(=O)c1cn(-c2cc(Nc3nc(C)cc(NC)n3)ccc2OC)nc1C [Compound 103]	> 10 µM	> 10 µM
CNC(=O)c1cnn(-c2cc(Nc3nc(C)cc(NC)n3)ccc2OC)c1 [Compound 104]	> 10 µM	1 to 10 µM
CNC(=O)c1c(C)nn(-c2cc(Nc3nc(C)cc(NC)n3)ccc2OC)c1C [Compound 105]	> 10 µM	> 10 µM
CNCc1c(C)nn(-c2cc(Nc3nc(C)cc(NC)n3)ccc2OC)c1C [Compound 106]	> 10 µM	> 10 µM
CNc1cc(C)nc(Nc2ccc(OC)c(-n3cc(CN(C)C)cn3)c2)n1 [Compound 109, N2-(3-(4-((dimethylamino)methyl)-1H-pyrazol-1-yl)-4-methoxyphenyl)-N4,6-dimethylpyrimidine-2,4-diamine]	< 0.1 µM	< 0.1 µM
CNc1cc(C)nc(Nc2ccc(OC)c(-n3ncc4c3CCNC4)c2)n1 [Compound 113, N2-(4-methoxy-3-(4,5,6,7-tetrahydro-1H-pyrazolo[4,3-c]pyridin-1-yl)phenyl)-N4,6-dimethylpyrimidine-2,4-diamine]	0.1 to 1 µM	< 0.1 µM
CNc1cc(C2CCOCC2)c2cc(OC)c(-n3cc(CN(C)C)nn3)cc2n1 [Compound 116]	1 to 10 µM	1 to 10 µM
CNC(=O)c1cn(-c2cc(Nc3nc(C)cc(NC)n3)ccc2OC)nn1 [Compound 117]	> 10 µM	> 10 µM
CNc1cc(C)nc(Nc2ccc(OC)c(-n3ncc4ncccc43)c2)n1 [Compound 119]	> 10 µM	1 to 10 µM
